Test system: 648629-189-R-J1-PDC spheroids with HUVEC/MSC, viability
Assay: Anticancer human tumor 648629-189-R-J1-PDC patient-derived bladder carcinoma cell line growth inhibition [PI3K]
Details: for IC50: curve of first compound; for viability, T/C: stronger effect = lower value
In short: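 Spheroid viability read-out. Co-cultures contained the tumor line plus HUVEC and human MSCs. Each agent was paired with a PI3K inhibitor (inavolisib, alpelisib, duvelisib, copanlisib) across half-log dilutions starting at clinical Cmax, or at 10 microM when Cmax was unknown.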

[1] = second compound 0.0316 µM, first compound 0.0316 µM
[2] = second compound 0.0316 µM, first compound 0.1 µM
[3] = second compound 0.1 µM, first compound 0.0316 µM
[4] = second compound 0.1 µM, first compound 0.1 µM
[5] = second compound 0.316 µM, first compound 0.0316 µM
[6] = second compound 0.316 µM, first compound 0.1 µM
[7] = second compound 1 µM, first compound 0.0316 µM
[8] = second compound 1 µM, first compound 0.1 µM
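Further: spheroids exposed to agents for seven days before reading.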
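Wherever viability, T/C is given: percent of vehicle control luminescence where 100% = DMSO treated spheroids.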

Compound: CCCS(=O)(=O)Nc1ccc(F)c(C(=O)c2c[nH]c3ncc(-c4ccc(Cl)cc4)cc23)c1F + CC(Nc1ccc2c(c1)OCCn1cc(N3C(=O)OCC3C(F)F)nc1-2)C(N)=O
- IC50 (second compound 0.00316 µM): 5.19 µM
- IC50 (second compound 0.01 µM): 5.51 µM
- IC50 (second compound 0.0316 µM): 4.72 µM
- IC50 (second compound 0.1 µM): 4.82 µM
- IC50 (second compound 0.316 µM): 4.48 µM
- IC50 (second compound 1 µM): 3.55 µM
- viability, T/C (second compound 0.00316 µM, first compound 0.0316 µM): 108%
- viability, T/C (second compound 0.00316 µM, first compound 0.1 µM): 105%
- viability, T/C (second compound 0.00316 µM, first compound 0.316 µM): 105%
- viability, T/C (second compound 0.00316 µM, first compound 1 µM): 106%
- viability, T/C (second compound 0.00316 µM, first compound 3.16 µM): 87.5%
- viability, T/C (second compound 0.00316 µM, first compound 10 µM): 0.36%
- viability, T/C (second compound 0.01 µM, first compound 0.0316 µM): 112%
- viability, T/C (second compound 0.01 µM, first compound 0.1 µM): 91%
- viability, T/C (second compound 0.01 µM, first compound 0.316 µM): 109%
- viability, T/C (second compound 0.01 µM, first compound 1 µM): 129%
- viability, T/C (second compound 0.01 µM, first compound 3.16 µM): 96.5%
- viability, T/C (second compound 0.01 µM, first compound 10 µM): 0.28%
- viability, T/C [1]: 104%
- viability, T/C [2]: 111%
- viability, T/C (second compound 0.0316 µM, first compound 0.316 µM): 93.3%
- viability, T/C (second compound 0.0316 µM, first compound 1 µM): 112%
- viability, T/C (second compound 0.0316 µM, first compound 3.16 µM): 76.5%
- viability, T/C (second compound 0.0316 µM, first compound 10 µM): 0.32%
- viability, T/C [3]: 98.3%
- viability, T/C [4]: 92.3%
- viability, T/C (second compound 0.1 µM, first compound 0.316 µM): 97.9%
- viability, T/C (second compound 0.1 µM, first compound 1 µM): 98.9%
- viability, T/C (second compound 0.1 µM, first compound 3.16 µM): 77.3%
- viability, T/C (second compound 0.1 µM, first compound 10 µM): 2.36%
- viability, T/C [5]: 94.5%
- viability, T/C [6]: 83.4%
- viability, T/C (second compound 0.316 µM, first compound 0.316 µM): 88.1%
- viability, T/C (second compound 0.316 µM, first compound 1 µM): 84.5%
- viability, T/C (second compound 0.316 µM, first compound 3.16 µM): 71.9%
- viability, T/C (second compound 0.316 µM, first compound 10 µM): 0.44%
- viability, T/C [7]: 63.8%
- viability, T/C [8]: 60.6%
- viability, T/C (second compound 1 µM, first compound 0.316 µM): 65.8%
- viability, T/C (second compound 1 µM, first compound 1 µM): 64.9%
- viability, T/C (second compound 1 µM, first compound 3.16 µM): 55.2%
- viability, T/C (second compound 1 µM, first compound 10 µM): 0.54%

Compound: Cn1ncnc1[C@H]1c2n[nH]c(=O)c3cc(F)cc(c23)N[C@@H]1c1ccc(F)cc1 + CC(Nc1ncnc2nc[nH]c12)c1cc2cccc(Cl)c2c(=O)n1-c1ccccc1
- IC50 (second compound 0.0316 µM): > 0.1 µM
- IC50 (second compound 0.1 µM): > 0.1 µM
- IC50 (second compound 0.316 µM): > 0.1 µM
- IC50 (second compound 1 µM): > 0.1 µM
- IC50 (second compound 3.16 µM): > 0.1 µM
- IC50 (second compound 10 µM): > 0.1 µM
- viability, T/C (second compound 0.0316 µM, first compound 0.000316 µM): 99.8%
- viability, T/C (second compound 0.0316 µM, first compound 0.001 µM): 100%
- viability, T/C (second compound 0.0316 µM, first compound 0.00316 µM): 99.8%
- viability, T/C (second compound 0.0316 µM, first compound 0.01 µM): 88.1%
- viability, T/C [1]: 67.2%
- viability, T/C [2]: 71%
- viability, T/C (second compound 0.1 µM, first compound 0.000316 µM): 97.8%
- viability, T/C (second compound 0.1 µM, first compound 0.001 µM): 101%
- viability, T/C (second compound 0.1 µM, first compound 0.00316 µM): 98.2%
- viability, T/C (second compound 0.1 µM, first compound 0.01 µM): 81.2%
- viability, T/C [3]: 93.2%
- viability, T/C [4]: 66.7%
- viability, T/C (second compound 0.316 µM, first compound 0.000316 µM): 94.2%
- viability, T/C (second compound 0.316 µM, first compound 0.001 µM): 98.2%
- viability, T/C (second compound 0.316 µM, first compound 0.00316 µM): 91.9%
- viability, T/C (second compound 0.316 µM, first compound 0.01 µM): 92%
- viability, T/C [5]: 85.4%
- viability, T/C [6]: 59.1%
- viability, T/C (second compound 1 µM, first compound 0.000316 µM): 111%
- viability, T/C (second compound 1 µM, first compound 0.001 µM): 100%
- viability, T/C (second compound 1 µM, first compound 0.00316 µM): 97.8%
- viability, T/C (second compound 1 µM, first compound 0.01 µM): 82.3%
- viability, T/C [7]: 74.4%
- viability, T/C [8]: 65.1%
- viability, T/C (second compound 3.16 µM, first compound 0.000316 µM): 96.4%
- viability, T/C (second compound 3.16 µM, first compound 0.001 µM): 89.6%
- viability, T/C (second compound 3.16 µM, first compound 0.00316 µM): 88.7%
- viability, T/C (second compound 3.16 µM, first compound 0.01 µM): 86.5%
- viability, T/C (second compound 3.16 µM, first compound 0.0316 µM): 81.6%
- viability, T/C (second compound 3.16 µM, first compound 0.1 µM): 58.9%
- viability, T/C (second compound 10 µM, first compound 0.000316 µM): 90.4%
- viability, T/C (second compound 10 µM, first compound 0.001 µM): 86.7%
- viability, T/C (second compound 10 µM, first compound 0.00316 µM): 80.7%
- viability, T/C (second compound 10 µM, first compound 0.01 µM): 80.7%
- viability, T/C (second compound 10 µM, first compound 0.0316 µM): 71.1%
- viability, T/C (second compound 10 µM, first compound 0.1 µM): 55.9%

Compound: Cn1cnc2c(F)c(Nc3ccc(Br)cc3Cl)c(C(=O)NOCCO)cc21 + CC(Nc1ncnc2nc[nH]c12)c1cc2cccc(Cl)c2c(=O)n1-c1ccccc1
- IC50 (second compound 0.0316 µM): > 3 µM
- IC50 (second compound 0.1 µM): > 3 µM
- IC50 (second compound 0.316 µM): > 3 µM
- IC50 (second compound 1 µM): > 3 µM
- IC50 (second compound 3.16 µM): > 3 µM
- IC50 (second compound 10 µM): > 3 µM
- viability, T/C (second compound 0.0316 µM, first compound 0.00949 µM): 101%
- viability, T/C (second compound 0.0316 µM, first compound 0.03 µM): 86.2%
- viability, T/C (second compound 0.0316 µM, first compound 0.0949 µM): 84%
- viability, T/C (second compound 0.0316 µM, first compound 0.3 µM): 101%
- viability, T/C (second compound 0.0316 µM, first compound 0.949 µM): 93.6%
- viability, T/C (second compound 0.0316 µM, first compound 3 µM): 81.6%
- viability, T/C (second compound 0.1 µM, first compound 0.00949 µM): 97.1%
- viability, T/C (second compound 0.1 µM, first compound 0.03 µM): 93.6%
- viability, T/C (second compound 0.1 µM, first compound 0.0949 µM): 102%
- viability, T/C (second compound 0.1 µM, first compound 0.3 µM): 95.5%
- viability, T/C (second compound 0.1 µM, first compound 0.949 µM): 107%
- viability, T/C (second compound 0.1 µM, first compound 3 µM): 90.1%
- viability, T/C (second compound 0.316 µM, first compound 0.00949 µM): 95.8%
- viability, T/C (second compound 0.316 µM, first compound 0.03 µM): 101%
- viability, T/C (second compound 0.316 µM, first compound 0.0949 µM): 94%
- viability, T/C (second compound 0.316 µM, first compound 0.3 µM): 114%
- viability, T/C (second compound 0.316 µM, first compound 0.949 µM): 105%
- viability, T/C (second compound 0.316 µM, first compound 3 µM): 79.2%
- viability, T/C (second compound 1 µM, first compound 0.00949 µM): 105%
- viability, T/C (second compound 1 µM, first compound 0.03 µM): 100%
- viability, T/C (second compound 1 µM, first compound 0.0949 µM): 94.9%
- viability, T/C (second compound 1 µM, first compound 0.3 µM): 98.9%
- viability, T/C (second compound 1 µM, first compound 0.949 µM): 88.3%
- viability, T/C (second compound 1 µM, first compound 3 µM): 88.2%
- viability, T/C (second compound 3.16 µM, first compound 0.00949 µM): 103%
- viability, T/C (second compound 3.16 µM, first compound 0.03 µM): 101%
- viability, T/C (second compound 3.16 µM, first compound 0.0949 µM): 94.2%
- viability, T/C (second compound 3.16 µM, first compound 0.3 µM): 108%
- viability, T/C (second compound 3.16 µM, first compound 0.949 µM): 89.2%
- viability, T/C (second compound 3.16 µM, first compound 3 µM): 84.4%
- viability, T/C (second compound 10 µM, first compound 0.00949 µM): 93.2%
- viability, T/C (second compound 10 µM, first compound 0.03 µM): 80.3%
- viability, T/C (second compound 10 µM, first compound 0.0949 µM): 92.1%
- viability, T/C (second compound 10 µM, first compound 0.3 µM): 92.8%
- viability, T/C (second compound 10 µM, first compound 0.949 µM): 79%
- viability, T/C (second compound 10 µM, first compound 3 µM): 68.6%
